Counter-ions that a name gives are not always drawn.
Target: RIPK1 (recombinant GST-RIPK1 kinase domain, residues 1-327) (Homo sapiens (Human), UniProt Q13546)
Experiment: RIPK1-ADP-Glo Enzymatic Assay
Type: biochemical
Settings: ADP-Glo; 25 nM GST-RIPK1, 300 μM ATP; assay lower limit ~25 nM; read-out: RIPK1 V0 Ec50
Method in brief: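 Using dephosphorylated MBP (3 μM) as substrate and 300 μM ATP, 25 nM baculovirus-produced enzyme was reacted for 150 min after a 30-min compound pre-incubation. Luminescent ADP detection followed; lower confidence limit ~25 nM.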

RIPK1 (recombinant GST-RIPK1 kinase domain, residues 1-327), sequence (Q13546 1-327): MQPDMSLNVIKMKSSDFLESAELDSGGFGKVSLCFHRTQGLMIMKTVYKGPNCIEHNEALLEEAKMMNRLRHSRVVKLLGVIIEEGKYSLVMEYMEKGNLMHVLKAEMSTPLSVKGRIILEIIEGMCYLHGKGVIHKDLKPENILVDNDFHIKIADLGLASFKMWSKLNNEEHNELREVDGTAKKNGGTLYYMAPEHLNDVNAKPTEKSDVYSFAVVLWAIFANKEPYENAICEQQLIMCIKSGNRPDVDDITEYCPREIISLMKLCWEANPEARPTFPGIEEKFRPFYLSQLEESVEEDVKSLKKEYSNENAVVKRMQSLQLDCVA

EC50 [nM]	Structure (SMILES)
< 25	O=C1N2[C@@H](CC[C@H]2c2ccccc2)OC12CCN(c1cccc3ncnn13)CC2F (single isomer, unassigned) [Example 13.17, (3[R or S], 4[S or R], 5′S,7a′R)-1-([1,2,4]triazolo[1,5-a]pyridin-5-yl)-3-fluoro-5′-phenyltetrahydro-3′H-spiro[piperidine-4,2′-pyrrolo[2,1-b]oxazol]-3′-one, TFA salt]
< 25	O=C(c1ccccc1)N1CCC2(CC1)O[C@@H]1CC[C@@H](c3ccc(F)cc3F)N1C2=O [Example 17.14, (5′S,7a′R)-1-(benzenecarbonyl)-5′-(2,4-difluorophenyl)tetrahydro-3′H-spiro[piperidine-4,2′-pyrrolo[2,1-b][1,3]oxazol]-3′-one]
234	N#Cc1cccc(CN2CCC3(CC2)O[C@@H]2CC[C@@H](c4cc(F)cc(F)c4)N2C3=O)c1 [Example 22.6, 3-{[(5′S,7a′R)-5′-(3,5-difluorophenyl)-3′-oxotetrahydro-1H,3′H-spiro[piperidine-4,2′-pyrrolo[2,1-b][1,3]oxazol]-1-yl]methyl}benzonitrile]

Second part, the molecule before the results:

Structure (SMILES)	EC50 [nM]
O=C(c1cnc2cnccn12)N1CCC2(CC1)O[C@@H]1CC[C@@H](c3cc(F)cc(F)c3)N1C2=O [Example 5.67, (5′S,7a′R)-5′-(3,5-difluoro-phenyl)-1-(imidazo[1,2-a]pyrazine-3-carbonyl)-tetrahydro-3′H-spiro [piperidine-4,2′-pyrrolo-[2,1-b]oxazol]-3′-one]	135
CC1CC2(CCN1C(=O)c1ncccc1F)O[C@@H]1CC[C@@H](c3cccc(F)c3)N1C2=O (stereo partly drawn) [Example 6.159, (4R,5′S,7a′R)-5′-(3-fluorophenyl)-1-(3-fluoropyridine-2-carbonyl)-2-methyl-tetrahydro-3′H-spiro [piperidine-4,2′-pyrrolo[2,1-b][1,3]oxazol]-3′-one]	826
Cc1nc(N2CCC3(CC2)C[C@@H]2OC[C@@H](c4ccccc4)N2C3=O)ccc1C#N [Example 4.78, 2-methyl-6-[(3′R,7a′S)-5′-oxo-3′-phenyltetrahydro-1H,5′H-spiro[piperidine-4,6′-pyrrolo[2,1-b] [1,3]oxazol]-1-yl]pyridine-3-carbonitrile]	58.7
O=C1N2[C@@H](CC[C@H]2c2ccccc2)OC12CCN(c1ccc(F)c3ncnn13)CC2 [Example 4.223, (5′S,7a′R)-1-(8-fluoro[1,2,4]triazolo[1,5-a]pyridin-5-yl)-5′-phenyltetrahydro-3′H-spiro[piperidine-4,2′-pyrrolo[2,1-b] [1,3]oxazol]-3′-one]	< 25
N#Cc1ccc(N2CCC3(CC2)O[C@@H]2CC[C@@H](c4ccccc4F)N2C3=O)n2nccc12 [Example 4.156, 7-[(5′S,7a′R)-5′-(2-fluorophenyl)-3′-oxotetrahydro-1H,3′H-spiro[piperidine-4,2′-pyrrolo[2,1-b] [1,3]oxazol]-1-yl]pyrazolo[1,5-a] pyridine-4-carbonitrile]	< 25
O=C1N2[C@@H](CC[C@H]2c2ccccc2)OC12CCN(c1cc(-n3ccnc3)ncn1)CC2 [Example 4.171, (5′S,7a′R)-1-[6-(1H-imidazol-1-yl)pyrimidin-4-yl]-5′-phenyltetrahydro-3′H-spiro[piperidine-4,2′-pyrrolo[2,1-b] [1,3]oxazol]-3′-one]	< 25
CC(C)(C)OC(=O)/C=C/c1ccc(N2CCC3(CC2)O[C@@H]2CC[C@@H](c4ccccc4)N2C3=O)nc1 [Example 4.163, tert-butyl (2E)-3-{6-[(5′S,7a′R)-3′-oxo-5′-phenyltetrahydro-1H,3′H-spiro[piperidine-4,2′-pyrrolo[2,1-b] [1,3]oxazol]-1-yl]pyridin-3-yl}prop-2-enoate]	30.3
O=C1N2[C@@H](CC[C@H]2c2ccccc2)OC12CCN(c1ncccc1Cl)CC2 [Example 4.256, (5′S,7a′R)-1-(3-chloropyridin-2-yl)-5′-phenyltetrahydro-3′H-spiro[piperidine-4,2′-pyrrolo[2,1-b] [1,3]oxazol]-3′-one]	25
